Assays:
[1] = tested on: Human immunodeficiency virus 1; test: Antiviral activity against HIV1 harboring L100I mutant infected in human MT4 cells assessed as protection against virus-induced cytopathicity; assay type: functional, organism-based; conditions: Human immunodeficiency virus 1, MT4
[2] = tested on: Human immunodeficiency virus 1; test: Antiviral activity against wild type HIV1 IIIB infected in human MT4 cells assessed as protection against virus-induced cytopathicity; assay type: functional, organism-based; conditions: Human immunodeficiency virus 1, IIIB
[3] = Cytotoxicity against human MT4 cells assessed as reduction in cell viability; assay type: toxicity, cell-based
[4] = Selectivity index, ratio of CC50 for cytotoxicity against human MT4 cells to EC50 for antiviral activity against wild type HIV1 IIIB infected in human MT4 cells; assay type: toxicity, cell-based; conditions: read-out: Ratio CC50/EC50
[5] = tested on: Human immunodeficiency virus 1; test: Antiviral activity against HIV1 harboring K103 N mutant infected in human MT4 cells assessed as protection against virus-induced cytopathicity; assay type: functional, organism-based; conditions: Human immunodeficiency virus 1, MT4
[6] = tested on: Human immunodeficiency virus 1; test: Antiviral activity against HIV1 harboring Y181C mutant infected in human MT4 cells assessed as protection against virus-induced cytopathicity; assay type: functional, organism-based; conditions: Human immunodeficiency virus 1, MT4
[7] = tested on: Human immunodeficiency virus 1; test: Antiviral activity against HIV1 harboring Y188L mutant infected in human MT4 cells assessed as protection against virus-induced cytopathicity; assay type: functional, organism-based; conditions: Human immunodeficiency virus 1, MT4
[8] = tested on: Human immunodeficiency virus 1; test: Antiviral activity against HIV1 harboring E138K mutant infected in human MT4 cells assessed as protection against virus-induced cytopathicity; assay type: functional, organism-based; conditions: Human immunodeficiency virus 1, MT4
[9] = biological target: Human immunodeficiency virus type 1 reverse transcriptase (Human immunodeficiency virus 1, UniProt Q72547); test: Inhibition of wild type HIV-1 reverse transcriptase assessed as inhibition of biotin deoxyuridine triphosphate incorporation into […]

Row | Structure (SMILES) | EC50 [1] | EC50 [2] | CC50 [3] | selectivity ratio [4] | EC50 [5] | EC50 [6] | EC50 [7] | EC50 [8] | IC50 [9]
1 | Cc1ccc(Sc2c(C3CC3)c(=O)[nH]c(=O)n2COCc2ccccc2)c(C)c1 | 4.75 µM | 4.75 µM | 32.2 µM | 7 | > 32.2 µM | > 32.2 µM | > 32.2 µM | > 32.2 µM | 5.39 µM
2 | O=c1[nH]c(=O)n(COCc2ccccc2)c(Sc2ccc(Br)cc2)c1C1CC1 | 4.05 µM | 6.18 µM | 25.9 µM | > 4 | > 25.9 µM | 4.11 µM | > 25.9 µM | 9.8 µM | 3.92 µM
3 | COc1ccccc1Sc1c(C2CC2)c(=O)[nH]c(=O)n1COCc1ccccc1 | 0.61 µM | 0.17 µM | 33.6 µM | 197 | ≥ 9.28 µM | 3.82 µM | > 33.6 µM | 0.83 µM | 0.56 µM
4 | O=c1[nH]c(=O)n(COCc2ccccc2)c(Sc2cc(F)cc(F)c2)c1C1CC1 | 0.43 µM | 0.036 µM | 30 µM | 842 | 3.01 µM | 4.27 µM | > 30 µM | 0.19 µM | 0.1 µM
5 | O=c1[nH]c(=O)n(COCc2ccccc2)c(Sc2ccccc2Br)c1C1CC1 | 0.54 µM | 0.15 µM | 27.2 µM | 184 | 7.21 µM | 2.66 µM | > 27.2 µM | 0.41 µM | 0.16 µM
6 | Cc1ccccc1Sc1c(C2CC2)c(=O)[nH]c(=O)n1COCc1ccccc1 | 1.07 µM | 0.15 µM | 30.1 µM | 203 | > 7.96 µM | 5.35 µM | > 30.1 µM | 0.89 µM | 0.3 µM
7 | O=c1[nH]c(=O)n(COCc2ccccc2)c(Sc2cc(Cl)cc(Cl)c2)c1C1CC1 | 0.4 µM | 0.073 µM | 28.7 µM | 395 | 2.74 µM | 1.71 µM | 7.7 µM | 0.45 µM | 0.11 µM
8 | O=c1[nH]c(=O)n(COCc2ccccc2)c(Sc2ccc(Cl)cc2Cl)c1C1CC1 | 4.43 µM | 5.3 µM | 34 µM | 6 | > 30 µM | ≥ 11.1 µM | > 30 µM | > 30 µM | 5.56 µM
9 | O=c1[nH]c(=O)n(COCc2ccccc2)c(Sc2ccc(Cl)cc2)c1C1CC1 | 4.48 µM | 4.46 µM | 30.2 µM | 7 | > 30.3 µM | 3.78 µM | > 30.3 µM | > 30.3 µM | 5.78 µM
10 | O=c1[nH]c(=O)n(COCc2ccccc2)c(Sc2ccc(F)cc2F)c1C1CC1 | 3.1 µM | 1.2 µM | 33.5 µM | 28 | > 33.5 µM | ≥ 9.44 µM | > 33.5 µM | 8.38 µM | 1.8 µM
11 | COc1cccc(Sc2c(C3CC3)c(=O)[nH]c(=O)n2COCc2ccccc2)c1 | 0.27 µM | 0.085 µM | 33.1 µM | 383 | 9.31 µM | 5.1 µM | > 33.1 µM | 0.49 µM | 0.18 µM
12 | O=c1[nH]c(=O)n(COCc2ccccc2)c(Sc2c(Cl)cccc2Cl)c1C1CC1 | 2.65 µM | 3.14 µM | 22.9 µM | 7 | > 22.9 µM | > 22.9 µM | > 22.9 µM | 3.07 µM | 4.23 µM

Reference: ChEMBL document CHEMBL5331066, “Structure-guided design of novel HEPT analogs with enhanced potency and safety: From Isopropyl-HEPTs to Cyclopropyl-HEPTs” (Eur J Med Chem, 2023)
